The source made the active and inactive calls.
Tests used:
[1] = biological target: Envelope glycoprotein gp160 (Human immunodeficiency virus 1, UniProt Q6QLK5); test: inhibitors of HIV fusion peptide binding, primary screen, biochemical, uHTS, fluorescence dequenching (AID 1986)
[2] = test system: Streptococcus sp. 'group A'; test: growth inhibition of control SK(-) GAS strain, dose response, counter-screen for streptokinase expression inhibitor project, luminescence, kanamycin, BacTiterGlo, confirmation (AID 1900); format: functional, organism-based
[3] = HIV-1 Env-mediated cell fusion inhibitors, dose response, CCR5-tropic Env (AID 2279); format: functional
Streptococcus = test: Group A Streptococcus viability loss, dose response, counter-screen for streptokinase expression inhibitor project, luminescence, BacTiterGlo (AID 1915); format: functional, organism-based;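 note: potency for reduction of bacterial viability or growth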
[4] = Intein inhibitors as potential Tuberculosis drugs, a cytotoxicity screen. [Related pubchem assays (depositor defined):AID2221, AID2223, AID434968, AID435010, AID449749, AID449750, AID489010]; format: functional
[5] = biological target: T1, Replicative DNA helicase DnaB (Mycobacterium tuberculosis, UniProt P9WMR3); test: DnaB intein splicing inhibitors, dose response, biochemical, cell-free fluorescence (AID 449749); format: functional
T1 sequence (P9WMR3 whole entry): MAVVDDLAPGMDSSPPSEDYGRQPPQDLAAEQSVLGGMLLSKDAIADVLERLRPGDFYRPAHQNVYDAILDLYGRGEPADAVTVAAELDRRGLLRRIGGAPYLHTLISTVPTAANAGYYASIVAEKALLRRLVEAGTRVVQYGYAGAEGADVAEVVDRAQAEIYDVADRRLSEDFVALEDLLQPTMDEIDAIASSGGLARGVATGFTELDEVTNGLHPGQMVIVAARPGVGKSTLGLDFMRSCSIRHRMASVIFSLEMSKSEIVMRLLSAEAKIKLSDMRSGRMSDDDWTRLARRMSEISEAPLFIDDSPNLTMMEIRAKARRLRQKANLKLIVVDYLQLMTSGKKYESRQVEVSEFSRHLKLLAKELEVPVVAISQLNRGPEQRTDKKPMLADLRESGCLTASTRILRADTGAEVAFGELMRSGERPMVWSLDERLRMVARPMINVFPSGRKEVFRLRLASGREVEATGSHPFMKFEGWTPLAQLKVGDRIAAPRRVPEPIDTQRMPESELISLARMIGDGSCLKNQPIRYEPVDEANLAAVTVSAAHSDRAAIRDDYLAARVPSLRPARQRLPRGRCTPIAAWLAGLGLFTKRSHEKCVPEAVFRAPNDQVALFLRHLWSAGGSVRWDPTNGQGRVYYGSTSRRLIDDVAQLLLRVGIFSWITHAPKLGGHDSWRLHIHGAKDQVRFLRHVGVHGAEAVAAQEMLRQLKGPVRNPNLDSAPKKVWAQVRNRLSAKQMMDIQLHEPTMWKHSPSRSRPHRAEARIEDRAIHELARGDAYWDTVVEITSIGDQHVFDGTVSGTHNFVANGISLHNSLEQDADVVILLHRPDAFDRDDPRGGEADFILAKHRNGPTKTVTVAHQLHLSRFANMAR

Protein RecA = biological target: T2, Protein RecA (Mycobacterium tuberculosis, UniProt P9WHJ3); test: Fluorescence Cell-Free Homogeneous Dose Retest to Identify Inhibitors of RecA-Intein Splicing Activity. [Related pubchem assays (depositor defined):AID2097, AID2223, AID489010, AID492950]; format: functional
T2 sequence (P9WHJ3 whole entry): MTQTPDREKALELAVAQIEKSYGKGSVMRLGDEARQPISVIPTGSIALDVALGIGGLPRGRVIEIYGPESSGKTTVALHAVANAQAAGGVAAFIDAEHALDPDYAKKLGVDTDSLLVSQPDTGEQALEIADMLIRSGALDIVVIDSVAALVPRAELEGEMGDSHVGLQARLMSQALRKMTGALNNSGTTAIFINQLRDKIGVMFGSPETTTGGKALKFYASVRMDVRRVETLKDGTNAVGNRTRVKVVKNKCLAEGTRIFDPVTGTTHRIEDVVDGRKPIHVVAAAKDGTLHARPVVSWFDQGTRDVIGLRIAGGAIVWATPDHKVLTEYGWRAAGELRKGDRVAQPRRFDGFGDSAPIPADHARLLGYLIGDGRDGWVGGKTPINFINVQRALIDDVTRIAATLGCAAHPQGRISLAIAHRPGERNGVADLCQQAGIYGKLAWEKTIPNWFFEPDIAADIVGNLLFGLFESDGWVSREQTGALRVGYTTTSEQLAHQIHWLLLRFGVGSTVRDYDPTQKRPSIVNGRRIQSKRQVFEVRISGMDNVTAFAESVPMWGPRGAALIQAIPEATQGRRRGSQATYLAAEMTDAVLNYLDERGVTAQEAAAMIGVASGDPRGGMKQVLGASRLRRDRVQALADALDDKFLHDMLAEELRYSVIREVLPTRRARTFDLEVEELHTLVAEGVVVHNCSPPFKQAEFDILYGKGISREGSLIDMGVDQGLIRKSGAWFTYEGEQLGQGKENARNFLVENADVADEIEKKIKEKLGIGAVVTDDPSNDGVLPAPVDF

[6] = biological target: 26S proteasome non-ATPase regulatory subunit 14 (Homo sapiens, UniProt O00487); test: inhibition of proteasome subunit RPN11 – biochemical, fluorescence polarization, uHTS hits, confirmation (AID 602368); format: functional
[7] = biological target: 72 kDa type IV collagenase (Homo sapiens, UniProt P08253); test: Dose Response validation of uHTS RPN11 inhibitor hits using a MMP-2 Fluorescence assay.; format: functional
Prothrombin = Prothrombin (Bos taurus, UniProt P00735); test: thrombin inhibition, dose response, biochemical, fluorescence polarization, uHTS hits (AID 602369); format: functional
Fatty acid synthase [8] = biological target: T3, Fatty acid synthase (Homo sapiens, UniProt P49327); test: FAS thioesterase domain inhibitors, dose response, biochemical, endpoint fluorescence intensity, uHTS hits (AID 624327); format: functional;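 note: fluorescence from hydrolysis of an O-methyl fluorescein acyl ester substrate by the enzyme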
Fatty acid synthase [9] = biological target: T3, Fatty acid synthase; test: FAS thioesterase domain inhibitors, dose response, biochemical, kinetic fluorescence intensity (AID 624326); format: functional;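 note: rate of fluorescence rise from hydrolysis of a fluorogenic O-methyl fluorescein ester substrate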
Coagulation factor XII = biological target: T4, Coagulation factor XII (Homo sapiens, UniProt P00748); test: Factor XIIa Dose Response Confirmation from Single Well HTS. [Related pubchem assays (depositor defined):AID701]; format: functional
T4 sequence (P00748 whole entry): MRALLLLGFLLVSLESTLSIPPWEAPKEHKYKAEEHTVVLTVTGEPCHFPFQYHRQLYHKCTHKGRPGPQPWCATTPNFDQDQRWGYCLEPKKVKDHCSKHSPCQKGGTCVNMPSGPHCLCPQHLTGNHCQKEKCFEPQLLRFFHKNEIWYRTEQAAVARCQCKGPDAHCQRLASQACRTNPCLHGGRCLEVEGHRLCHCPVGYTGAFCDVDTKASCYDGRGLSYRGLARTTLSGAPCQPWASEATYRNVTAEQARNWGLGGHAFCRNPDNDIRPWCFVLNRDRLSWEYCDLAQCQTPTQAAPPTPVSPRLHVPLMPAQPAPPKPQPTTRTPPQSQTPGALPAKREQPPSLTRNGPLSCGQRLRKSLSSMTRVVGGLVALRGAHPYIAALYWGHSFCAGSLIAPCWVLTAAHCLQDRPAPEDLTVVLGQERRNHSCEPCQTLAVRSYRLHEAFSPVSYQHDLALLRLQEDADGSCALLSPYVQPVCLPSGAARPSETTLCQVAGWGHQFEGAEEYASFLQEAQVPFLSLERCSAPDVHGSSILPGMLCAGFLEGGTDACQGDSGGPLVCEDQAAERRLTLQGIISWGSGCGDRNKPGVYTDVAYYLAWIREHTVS

Bcl-2-related protein A1 = biological target: T5, Bcl-2-related protein A1 (Mus musculus, UniProt Q07440); format: functional;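 note: confirmatory dose–response counterscreen on Bfl-1, used to check hits from a UBC13 polyubiquitin inhibitor campaign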
T5 sequence (Q07440 whole entry): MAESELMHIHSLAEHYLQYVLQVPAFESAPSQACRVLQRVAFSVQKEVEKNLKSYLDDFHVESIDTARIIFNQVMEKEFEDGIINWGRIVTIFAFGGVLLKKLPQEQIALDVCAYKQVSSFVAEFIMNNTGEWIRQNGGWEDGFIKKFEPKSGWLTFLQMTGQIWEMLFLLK

[10] = biological target: T6, Ubiquitin-conjugating enzyme E2 N (Homo sapiens, UniProt P61088); format: functional
T6 sequence (P61088 whole entry): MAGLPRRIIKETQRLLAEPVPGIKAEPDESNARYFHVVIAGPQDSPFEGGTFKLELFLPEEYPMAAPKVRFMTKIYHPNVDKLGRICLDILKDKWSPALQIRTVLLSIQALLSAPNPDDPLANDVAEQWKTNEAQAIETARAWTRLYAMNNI

[11] = biological target: T6, Ubiquitin-conjugating enzyme E2 N; format: functional; remark: listed apart in the source
[12] = biological target: T7, Type-1 angiotensin II receptor (Homo sapiens, UniProt P30556); test: AT1 receptor agonists, dose response, selectivity assay for APJ receptor agonist project, cell-based, uHTS hits (AID 488865); format: functional;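 note: beta-arrestin recruitment to AT1 measured by enzyme fragment complementation luminescence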
T7 sequence (P30556 whole entry): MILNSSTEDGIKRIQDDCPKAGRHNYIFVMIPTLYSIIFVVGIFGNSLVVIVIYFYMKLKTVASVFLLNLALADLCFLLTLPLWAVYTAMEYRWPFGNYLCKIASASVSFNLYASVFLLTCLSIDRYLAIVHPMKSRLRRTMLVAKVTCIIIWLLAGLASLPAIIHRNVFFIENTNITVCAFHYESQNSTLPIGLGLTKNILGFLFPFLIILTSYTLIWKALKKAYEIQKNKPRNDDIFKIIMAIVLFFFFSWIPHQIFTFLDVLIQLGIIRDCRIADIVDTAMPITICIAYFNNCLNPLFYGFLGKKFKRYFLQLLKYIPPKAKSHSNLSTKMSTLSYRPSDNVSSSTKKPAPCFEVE
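Throughout, for CC50: cells exposed to compound for 72 hours before luminescence readout.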

T3 sequence (P49327 whole entry, the tested form may be a part): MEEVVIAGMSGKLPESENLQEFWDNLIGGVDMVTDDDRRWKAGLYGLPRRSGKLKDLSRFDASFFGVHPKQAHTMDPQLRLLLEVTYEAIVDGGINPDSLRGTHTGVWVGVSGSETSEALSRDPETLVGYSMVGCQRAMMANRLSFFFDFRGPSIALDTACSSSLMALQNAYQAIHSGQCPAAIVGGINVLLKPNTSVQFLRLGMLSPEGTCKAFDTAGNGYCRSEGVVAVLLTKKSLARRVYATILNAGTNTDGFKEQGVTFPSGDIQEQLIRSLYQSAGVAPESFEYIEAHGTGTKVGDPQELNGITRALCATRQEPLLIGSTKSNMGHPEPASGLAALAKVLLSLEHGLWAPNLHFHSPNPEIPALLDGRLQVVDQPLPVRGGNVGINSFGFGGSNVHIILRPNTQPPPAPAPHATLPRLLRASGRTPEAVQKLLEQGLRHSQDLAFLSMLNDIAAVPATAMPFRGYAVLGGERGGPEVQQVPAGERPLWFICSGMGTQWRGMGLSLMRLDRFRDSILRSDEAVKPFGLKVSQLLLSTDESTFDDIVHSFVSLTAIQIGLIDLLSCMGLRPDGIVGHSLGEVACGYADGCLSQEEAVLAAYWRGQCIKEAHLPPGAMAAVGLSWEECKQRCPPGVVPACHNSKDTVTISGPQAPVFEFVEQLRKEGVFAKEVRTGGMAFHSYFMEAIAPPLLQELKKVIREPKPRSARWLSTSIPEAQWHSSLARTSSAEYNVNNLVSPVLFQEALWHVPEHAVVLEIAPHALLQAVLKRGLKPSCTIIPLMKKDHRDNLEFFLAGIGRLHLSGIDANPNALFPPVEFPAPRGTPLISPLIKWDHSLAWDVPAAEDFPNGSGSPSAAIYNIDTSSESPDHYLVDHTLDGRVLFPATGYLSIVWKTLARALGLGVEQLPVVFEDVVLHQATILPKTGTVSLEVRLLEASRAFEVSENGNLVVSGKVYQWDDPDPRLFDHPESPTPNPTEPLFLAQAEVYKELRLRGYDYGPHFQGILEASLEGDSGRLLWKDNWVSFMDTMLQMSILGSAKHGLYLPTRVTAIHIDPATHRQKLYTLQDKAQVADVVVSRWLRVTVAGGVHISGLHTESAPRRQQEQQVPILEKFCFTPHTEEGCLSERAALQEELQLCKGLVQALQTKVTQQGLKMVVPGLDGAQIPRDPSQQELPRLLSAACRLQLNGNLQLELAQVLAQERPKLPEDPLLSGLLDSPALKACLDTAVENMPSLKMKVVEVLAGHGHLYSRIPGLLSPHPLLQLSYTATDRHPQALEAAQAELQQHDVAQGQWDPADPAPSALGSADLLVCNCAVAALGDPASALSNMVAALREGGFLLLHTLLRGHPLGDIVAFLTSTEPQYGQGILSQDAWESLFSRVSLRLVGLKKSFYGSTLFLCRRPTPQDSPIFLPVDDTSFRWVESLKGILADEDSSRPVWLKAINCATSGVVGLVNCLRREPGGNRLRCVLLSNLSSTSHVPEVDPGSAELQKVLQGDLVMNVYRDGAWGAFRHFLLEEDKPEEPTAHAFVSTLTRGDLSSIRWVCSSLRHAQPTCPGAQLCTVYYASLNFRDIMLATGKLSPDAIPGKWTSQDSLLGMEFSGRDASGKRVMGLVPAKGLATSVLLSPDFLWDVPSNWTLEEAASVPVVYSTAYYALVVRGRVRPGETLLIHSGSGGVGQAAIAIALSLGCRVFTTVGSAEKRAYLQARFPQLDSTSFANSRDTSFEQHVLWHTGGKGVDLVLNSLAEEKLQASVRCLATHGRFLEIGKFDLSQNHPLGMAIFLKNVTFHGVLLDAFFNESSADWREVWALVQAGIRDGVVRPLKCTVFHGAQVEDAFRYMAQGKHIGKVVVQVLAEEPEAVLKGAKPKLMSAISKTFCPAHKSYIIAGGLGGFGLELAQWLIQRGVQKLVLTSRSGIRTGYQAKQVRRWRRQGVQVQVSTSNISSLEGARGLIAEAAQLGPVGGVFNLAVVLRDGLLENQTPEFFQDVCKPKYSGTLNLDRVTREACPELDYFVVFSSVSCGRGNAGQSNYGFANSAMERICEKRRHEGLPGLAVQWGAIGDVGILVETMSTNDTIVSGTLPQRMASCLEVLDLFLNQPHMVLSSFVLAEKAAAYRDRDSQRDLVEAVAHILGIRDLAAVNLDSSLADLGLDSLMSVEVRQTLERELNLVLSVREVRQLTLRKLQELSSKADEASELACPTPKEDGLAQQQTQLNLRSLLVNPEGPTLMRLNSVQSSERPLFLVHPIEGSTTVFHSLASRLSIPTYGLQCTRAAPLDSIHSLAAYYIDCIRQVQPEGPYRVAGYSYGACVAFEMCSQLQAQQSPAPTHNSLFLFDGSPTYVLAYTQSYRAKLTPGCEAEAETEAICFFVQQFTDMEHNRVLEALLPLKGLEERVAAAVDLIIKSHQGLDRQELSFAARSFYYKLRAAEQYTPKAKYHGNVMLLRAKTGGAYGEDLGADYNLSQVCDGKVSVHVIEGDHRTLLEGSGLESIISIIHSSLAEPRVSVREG
26S proteasome non-ATPase regulatory subunit 14, sequence (O00487 whole entry): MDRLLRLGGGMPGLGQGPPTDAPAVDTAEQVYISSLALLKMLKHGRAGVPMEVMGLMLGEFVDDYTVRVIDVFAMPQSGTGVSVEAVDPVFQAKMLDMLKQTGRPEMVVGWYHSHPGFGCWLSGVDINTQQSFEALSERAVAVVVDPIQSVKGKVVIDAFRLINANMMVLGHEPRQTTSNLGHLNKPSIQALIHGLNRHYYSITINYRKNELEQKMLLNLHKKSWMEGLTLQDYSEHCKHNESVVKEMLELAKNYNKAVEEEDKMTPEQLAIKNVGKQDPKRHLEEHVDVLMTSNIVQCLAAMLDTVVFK
72 kDa type IV collagenase, sequence (P08253 whole entry): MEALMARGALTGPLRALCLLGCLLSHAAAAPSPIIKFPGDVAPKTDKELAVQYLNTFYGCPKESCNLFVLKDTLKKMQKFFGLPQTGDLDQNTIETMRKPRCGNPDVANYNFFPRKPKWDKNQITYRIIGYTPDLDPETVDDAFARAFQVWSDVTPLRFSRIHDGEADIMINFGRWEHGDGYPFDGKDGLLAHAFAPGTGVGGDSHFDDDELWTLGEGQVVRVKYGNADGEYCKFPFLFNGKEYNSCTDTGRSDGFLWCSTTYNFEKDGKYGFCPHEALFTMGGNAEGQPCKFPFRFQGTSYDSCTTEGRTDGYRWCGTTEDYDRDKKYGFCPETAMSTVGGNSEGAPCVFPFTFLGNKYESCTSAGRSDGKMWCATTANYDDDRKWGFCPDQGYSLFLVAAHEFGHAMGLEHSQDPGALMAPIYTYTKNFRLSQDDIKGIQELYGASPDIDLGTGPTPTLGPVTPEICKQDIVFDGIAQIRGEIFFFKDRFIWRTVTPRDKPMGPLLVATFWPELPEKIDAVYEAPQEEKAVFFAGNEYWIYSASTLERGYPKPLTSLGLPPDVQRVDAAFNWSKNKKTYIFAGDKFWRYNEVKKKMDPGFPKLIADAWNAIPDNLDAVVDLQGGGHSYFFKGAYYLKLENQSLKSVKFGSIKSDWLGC
Envelope glycoprotein gp160, sequence (Q6QLK5 whole entry, the tested form may be a part): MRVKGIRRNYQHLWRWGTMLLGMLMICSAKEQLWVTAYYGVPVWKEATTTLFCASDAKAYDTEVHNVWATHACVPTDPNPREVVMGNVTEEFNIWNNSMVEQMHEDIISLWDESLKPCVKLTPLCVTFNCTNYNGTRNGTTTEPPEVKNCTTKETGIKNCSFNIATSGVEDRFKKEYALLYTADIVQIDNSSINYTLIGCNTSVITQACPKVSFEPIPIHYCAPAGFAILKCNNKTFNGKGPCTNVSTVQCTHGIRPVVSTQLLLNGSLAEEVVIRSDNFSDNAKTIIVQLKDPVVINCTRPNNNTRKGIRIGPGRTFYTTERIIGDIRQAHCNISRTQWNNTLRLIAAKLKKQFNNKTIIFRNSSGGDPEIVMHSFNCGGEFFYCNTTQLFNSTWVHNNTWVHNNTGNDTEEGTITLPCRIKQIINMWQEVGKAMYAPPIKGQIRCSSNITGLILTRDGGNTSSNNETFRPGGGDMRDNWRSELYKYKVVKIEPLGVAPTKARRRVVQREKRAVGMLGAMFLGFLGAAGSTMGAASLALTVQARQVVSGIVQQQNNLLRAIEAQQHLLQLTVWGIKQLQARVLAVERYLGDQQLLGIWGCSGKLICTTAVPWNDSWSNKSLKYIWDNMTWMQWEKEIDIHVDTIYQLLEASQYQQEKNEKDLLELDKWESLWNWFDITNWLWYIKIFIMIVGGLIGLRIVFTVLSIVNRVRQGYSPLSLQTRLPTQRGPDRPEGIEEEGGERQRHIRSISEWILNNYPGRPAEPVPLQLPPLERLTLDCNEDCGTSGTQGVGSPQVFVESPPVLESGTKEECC

O=C1NC(=S)N(C2CCCCC2)C(=O)/C1=C/NNC(=O)c1ccccc1O
IC50 [1]: 17.7 µM (active)
EC50 [2]: 0.725 µM (active)
IC50 [3]: 33.7 µM (active)
EC50 (Streptococcus): 2.18 µM (active)
CC50 [4]: 31.2 µM (active)
AC50 [5]: 3.25 µM (active)
EC50 (Protein RecA): 4.6 µM (active)
IC50 [6]: 36.7 µM (active)
IC50 [7]: > 100 µM (inactive)
IC50 (Prothrombin): 93.6 µM (active)
IC50 (Fatty acid synthase [8]): 31.1 µM (inactive)
IC50 (Fatty acid synthase [9]): 18.2 µM (active)

O=C(c1ccc2c(c1)OCO2)N1CCN(c2ccc(F)cc2)CC1
IC50 (Coagulation factor XII): > 50 µM (inactive)

CCOc1ccc2nc(N(CCCN(C)C)C(=O)c3ccc(S(=O)(=O)N4CCc5ccccc5C4)cc3)sc2c1
IC50 (Bcl-2-related protein A1): > 20 µM (inactive)
IC50 [10]: 6.95 µM (active)
IC50 [11]: 5.52 µM (active)
EC50 [12]: > 100 µM (inactive)

Source: ChEMBL document CHEMBL1201862, “PubChem BioAssay data set” (2004)
